Test results reported in US20220267753A1, “RATIONAL THERAPEUTIC TARGETING OF ONCOGENIC IMMUNE SIGNALING STATES IN MYELOID MALIGNANCIES VIA THE UBIQUITIN CONJUGATING ENZYME UBE2N” (CHILDREN'S HOSPITAL MEDICAL CENTER, priority 2019, published 2022).
Where two headings read alike, the source gives them in different places.

Experiments:
AML cell lines = assay: Cell proliferation MTS assay, panel of AML cell lines; assay type: cell-based; details: Homo sapiens
Protocol: AML cell lines (5×10^3 cells/well) were seeded in 96-well plates and grown for 24 to 96 h in serum (10%)-containing medium in the presence or absence of inhibitors at the indicated concentrations. Proliferation was analyzed by means of an MTS assay using the CellTiter 96 Aqueous One Solution Cell Proliferation Assay (Promega, Madison, Wis., USA), according to the manufacturer's instructions. Data are mean with standard deviation from three independent experiments in technical triplicates. For the screening of 160 compounds from the UC library, the cell metabolic activity was assessed at 24 hours of treatment of MOLM-13 cells. Top 15 candidates were re-screened at 2 μM, and the cell metabolic activity was determined at 24 hours of treatment. In certain experiments, cell viability was determined by staining the cells with trypan blue at a 1/2 dilution and counting total number of viable cells upon treatment with UC-764864 or DMSO control. The cells were counted daily for 4 days using an automated cell counter (Countess II FL from Life Technologies). […] UC-764864 was added at the indicated concentrations and cells were incubated with drug for 3 days, at which point cell viability was measured by MTS according to manufacturer's instructions.

UBE2E1 = target: T1, UBE2E1 (Homo sapiens, UniProt P51965); assay: Thioester bond formation assay; details: same biochemical assay
T1 construct: purchased Enzo Life Science BML-UW8710
T1 sequence (P51965 whole entry): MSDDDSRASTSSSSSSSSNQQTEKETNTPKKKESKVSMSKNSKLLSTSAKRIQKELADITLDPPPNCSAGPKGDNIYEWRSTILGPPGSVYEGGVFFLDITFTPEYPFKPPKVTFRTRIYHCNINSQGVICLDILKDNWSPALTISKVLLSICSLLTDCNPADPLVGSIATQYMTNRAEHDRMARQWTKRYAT
Protocol: (§1) An in vitro Ubiquitin-E2 thioester (TE) bond formation assay was performed as described (Enzo Life Science, #BML-UW9920-0001, Farmingdale, N.Y.). The reaction was prepared as follows: 10×E2 (UBE2N/Mms2, No. BML-UW9565; UbcH5a, No. BML-UW9050; or UbcH6, Prod. No. BML-UW8710) were incubated with UC-764864 or UC-764865 at 1 or 2 μM for 30 minutes at room temperature. After the incubation period, the following reagents were added to the reaction: distilled water, 10× ubiquitination buffer, inorganic pyrophosphatase solution (100 U/mL in 20 mM Tris-HCl, pH 7.5, Sigma, 83205, St. Louis, Mo.), 50 mM DTT, 0.1 M Mg-ATP, 20×E1 (recombinant human ubiquitin-activating enzyme) and 20× biotinylated ubiquitin to a final volume of 10 p.l. The mixture was incubated for 4 hours at 37° C. The reaction was stopped by adding 10 p.l 2× non-reducing gel loading buffer. 15 p.l of the samples were run on SDS-PAGE gels and transferred to PVDF membrane. […] After washing the membrane for 6×10 mins with TBS-T on a rocking platform, total ubiquitin was detected with ECL detection reagent (Pierce™ ECL Western Blotting Substrate, #32106, Appleton, Wis.) according to the manufacturer's instructions. Detect emitted signal with Biorad ChemiDoc™ MP and analyzed with Image lab software 6.0.1 (Biorad, Hercules, Calif.) or Image J [67]. […]

UBE2D1 = target: T2, UBE2D1 (Homo sapiens, UniProt P51668); assay: Thioester bond formation assay; details: same biochemical assay
T2 construct: purchased Enzo Life Science BML-UW9050
T2 sequence (P51668 whole entry): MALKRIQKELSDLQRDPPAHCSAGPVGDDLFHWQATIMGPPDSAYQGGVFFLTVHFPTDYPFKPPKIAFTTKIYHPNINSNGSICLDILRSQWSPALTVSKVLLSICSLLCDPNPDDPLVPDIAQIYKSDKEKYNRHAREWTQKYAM
Protocol: as §1

In vivo toxicity study = details: 4 doses of 25 mg/kg over 2 weeks, mice
Protocol: PK studies of UC-764864 and UC-764865 were performed in C57BL/6 mice (18-22 g). 10 mg/kg and 20 mg/kg UC-764864 or UC-764865 was administered through intraperitoneal (i.p.) injection. After dosing, blood samples were collected at 15 min, 30 min, 1 h, 2 h, 4 h, 8 h, 12 h, and 24 h. Samples from three animals were collected at each time point. Approximately 500 μL of blood was collected via orbital vein from each mouse, processed, and analyzed by LC-MS. Standard curves were prepared in blood covering the concentration range of 50-3,0000 ng/mL. Using the data from the standard curves, calibration curves were generated for PK tests. For in vivo toxicity studies, 25 mg/kg UC-764864, UC-764865, 10 mg/kg NSC697923 or vehicle control (methocel 0.5% tween-20 0.2%,0.1% DMSO in water) were administered in B6.SJL-Ptprca Pepcb/BoyJ mice (n=3/group) through i.p. injection. For 2 weeks the mice received 4 doses of each compound. Routine body weight and blood counts were performed. At the end of the study, tissues were harvested, placed in 10% buffered formalin, stained with hematoxylin and eosin (H&E) and examined by a pathologist.

interference with activity of UBE2E1 (UBE2E1) | interference with activity of UBE2D1 (UBE2D1) | SMILES | IC50 (AML cell lines; HL-60, NOMO-1, Kasumi-1, MV4-11, MDSL, read-out: IC50, cell lines with intermediate sensitivity) [µM] | IC50 (AML cell lines; MOLM-14, MOLM-13, THP-1, SKM-1, read-out: IC50, highly sensitive cell lines) [µM] | body weight, hematologic blood parameters, survival (In vivo toxicity study) | histological evaluation of several tissues (In vivo toxicity study) | tolerability after repeated administration (In vivo toxicity study)
did not interfere | did not interfere | CCc1ccc(C(=O)C=CSc2nc3ccc(C)cc3[nH]2)cc1 [UC-764864, 1-(4-ethylphenyl)-3-[(6-methyl-1H-benzimidazol-2-yl)sulfanyl]prop-2-en-1-one] | 4.3 to 6.7 | 0.02 to 2.5 | – | – | –
– | – | COc1ccc(C(=O)C=CSc2nc3ccc(C)cc3[nH]2)cc1 [UC-764865, 1-(4-methoxyphenyl)-3-[(6-methyl-1H-benzimidazol-2-yl)sulfanyl]prop-2-en-1-one] | – | – | did not significantly affect | no evidence of overall tissue toxicity | no abnormalities noted
